Experimental data reported in publication PMC10451034, “Highly Efficient Photosensitizers with Molecular Vibrational Torsion for Cancer Photodynamic Therapy” (ACS Central Science, 2023).
Entries after “also recorded” stand apart in the source; their conditions may differ.

Tests used:
[1] = In vivo biosafety (body weight, H&E staining of major organs); set-up: species or system BALB/c mice
Description: The efficacy and safety of each therapeutic group were also evaluated by performing a hematoxylin and eosin (H&E) staining assay of major organs and tumor tissue (Figures 10g and S23). […]
of major organs, the mice L) was intravenously injected with QTCy7-Ac (200 μM, 100 μL) 2 hours in advance were killed and the main organs and tumors were removed for […]
Tumor suppression experiments of 4T1-subcutaneous tumor model
To confirm the in vivo PDT efficacy of QTCy7-Ac, all the BALB/c mice were divided into 6 groups: 1) saline injection; 2) saline injection with 660 nm irradiation (100 mW/cm2, 15 min); 3) QTCy7-Ac (200 μM, 100 μL) intratumoral injection; 4) QTCy7-Ac (200 μM, 100 μL) intratumoral injection with 660 nm irradiation (100 mW/cm2, 15 min); 5) QTCy7-Ac (200 μM, 100 μL) intravenous injection; 6) QTCy7-Ac (200 μM, 100 μL) intravenous injection with 660 nm irradiation (100 mW/cm2, 15 min); When the volume of subcutaneous tumors reached about 100 mm 3, mice were injected with PBS or QTCy7-Ac, respectively. […] In the following half month, the tumor volume of all the mice was measured every two days by a vernier caliper. The volume of tumors was calculated by the following formula: […]
The in vivo biocompatibility was evaluated by using measurement mice body weight and H&E slice histological analysis. […]
Data were expressed as mean ± standard deviation. […]

[2] = test system: 4T1 subcutaneous solid tumor; experiment: In vivo fluorescence imaging of 4T1 tumor-bearing mice; set-up: species or system BALB/c mice
Excerpt: The prospective in vitro results prompted us to further explore in vivo application possibility of QTCy7-Ac, and a solid tumor model of BALB/c mice was established by inoculating 4T1 cells subcutaneously under the armpit (Figure 10a). All the BALB/c mice were purchased from Liaoning Changsheng Biotechnology Co., Ltd., and the animal experiments were approved by the Local Scientific Research Ethics Review Committee of the Animal Ethics Committee of Dalian University of Technology (ID no. // Ethics Approval No. 2021-043). When the tumor volume reached 100 mm^3, fluorescence imaging was performed at different time points after intravenous injection of QTCy7-Ac. […] To test this hypothesis, the mice were executed and dissected 2.5 h after intravenous injection, and the fluorescence imaging of the main organs and tumor was performed.
DMEM medium was replaced with saline to prevent false positive interference. […] Then the confocal fluorescence imaging was carried out and recorded with a 10 × objective lens.
Cytotoxicity was tested by the reduction of methyl thiazolyl tetrazolium to formazan by succinic acid dehydrogenase in the mitochondria of living cells (MTT assay). […] The MTT solution was carefully removed and 100 μL DMSO was added to dissolve formazan, and the absorbance of each well was measured by a multifunctional microplate reader at 570 nm and 630 nm. […]

CCOC(=O)C1=C/C(=C\C=C2/Sc3ccccc3N2CC)C(=O)C(/C=C/c2sc3ccccc3[n+]2CC)=C1 [QTCy7-Ac]
H&E staining of major organs (heart, liver, spleen, lung, kidney) ([1]; after 16 days of treatment): not observed
body weight changes ([1]; during the treatment): no abnormal body weight changes
time at which tumor region is lit up ([2]; after intravenous injection, 200 μM 100 μL): around 60 min
route of metabolism / organ distribution by ex vivo fluorescence ([2]; organs and tumor 2.5 h after intravenous injection): metabolized primarily through the kidney; also recorded: non-negligible fluorescence signal stronger than the liver
